Laboratory results taken from patent publication US12629355B2, “Drug inhibitor against migration and invasion of cancer cells and methods of treating against metastasis of cancer cells” (HOWARD UNIVERSITY, priority 2019, dated 2026).

Tests used:
Assay type in all cases: cell-based
[1] = test system: N-cadherin; experiment: Protein expression of EMT marker N-cadherin, western blot (FIG. 8); settings: U251 cells, serum starved 24 h, with or without TGFb, 6 days
Description: The inhibition of EMT marker by a representative compound (SD 29-14) in comparison to other compounds (SD 29, and SD 29-12). A large family of cadherin molecules are expressed in a cancer cell-type specific manner and among them, N-cadherin is reported to be expressed in mesenchymal cells (e.g., Li and Feng, 2011; Alizadeh et al., 2014). […] Up-regulation of N-cadherin reduces cancer cell adhesion ability to epithelial cells, increases adhesion to stromal cells, and leads to subsequent invasion of tumor cells into stroma (Guan 2015). N-cadherin promotes cell migration and metastasis regardless of the expression and function of E-cadherin (Hazan et al., 2000). […] The N-cadherin expression correlates with RACK1 expression (lower panel). The coomassie stained gel is used as the loading control.
As to FIG. 8, U251 cells starved (no serum) for 24 h and then treated with the indicated compounds with or without the TGFb and again replenished with the compounds and TGFb after 3 days. After allowing to grow for 6 days, the cells were washed three times in PBS. […] After overnight incubation, the membrane was washed 3× in PBST and then incubated with a horseradish peroxidase-coupled secondary antibody for an hour at room temperature and the bands were detected with enhanced chemiluminescence (Pierce, Rockford, IL, USA), according to standard methods.

[2] = test system: RACK1 / LamB1 co-localization; experiment: Co-localization of RACK1 with ECM protein LamB1, immunofluorescence (FIG. 11); settings: U251 cells, TGFbeta1, 72 h
Description: For effective migration, cell adhesion to the ECM is necessary and cell surface localized integrin molecules (alpha and beta) act as a link between the ECM and cell interior by acting as a receptor of the ECM proteins and linking ECM to the intracellular cytoskeleton complex. It is known that RACK1 acts as an integrin binding protein (Hermanto et al., 2002) and interaction between RACK1 and β1 integrin has been reported to mediate cancer cell invasion as reported in prostate cancer invasion and metastasis (Trerotola et al., 2012). RACK1 can promote tumor cell migration by using its scaffolding ability to bridge together different signaling proteins that integrate signaling from receptors cytoskeleton reorganization pathways. Laminin being a major ECM protein can therefor interact with integrins for cell adhesion and in this regard is expected to modulate by the RACK1 proteins scaffolding ability as discussed above. […] Lack of colocalization indicate that the link between the ECM proteins and intracellular cytoskeleton complex are interrupted and as such inhibiting this complex mediated migration signaling pathways.
As to FIG. 11, and methods of Immunofluorescence and confocal microscopy, U251 cells were grown to about 80% confluency in 12 well plate on glass cover slips and the cells were co-treated with the TGFb and indicated compounds for 72 h. […]

[3] = target: T1, RACK1A Y248 phosphorylation (Arabidopsis thaliana, UniProt O24456); experiment: Stress hormone (ABA) induced RACK1A Y248 phosphorylation in Arabidopsis seedlings, western blot (FIG. 1); settings: 10 uM ABA, 12 hours
T1 construct: from tissue; host or cells: one-week old Arabidopsis seedlings (whole-seedling lysate)
Description: The results of lab experiment establish the compounds identified by in silico screen to prevent RACK1 Y248 phosphorylation can inhibit RACK1 Y248 phosphorylation and confirm their utility in their application in RACK1 mediated cellular pathways. Y248 phosphorylation has previously been identified as a key event needed for RACK1 mediated scaffolding activities by regulating protein-protein interactions in plants. The corresponding residue in human RAKI is also a key requirement for scaffolding activities needed at the receptor level during the invasion and migration of cancer cells. […] The knock-out plant did maintain both the RACK1B protein and the RACK1C protein, but the antibody was raised to detect the RACK1A Y248 phosphorylation only.
As to FIG. 1, since RACK1 is a regulator of plant stress hormone Abscisic acid (ABA) (Guo et al., 2009), one-week old Arabidopsis seedlings were treated with 10 uM of ABA in the presence/absence of the inhibitor compounds for 12 hours in a growth chamber (overnight) at 22 C mostly in the night dark. Lysates isolated in buffer (Cell Signaling, MA) supplemented with plant protease inhibitor (Sigma-Aldrich), Protein Tyrosine phosphatase inhibitors (Santa Cruz Biotechnology, TX), and N-Ethylamaleimide (Sigma-Aldrich) at 25 mM to inhibit de-sumoylation. […]

T1 sequence (O24456 whole entry): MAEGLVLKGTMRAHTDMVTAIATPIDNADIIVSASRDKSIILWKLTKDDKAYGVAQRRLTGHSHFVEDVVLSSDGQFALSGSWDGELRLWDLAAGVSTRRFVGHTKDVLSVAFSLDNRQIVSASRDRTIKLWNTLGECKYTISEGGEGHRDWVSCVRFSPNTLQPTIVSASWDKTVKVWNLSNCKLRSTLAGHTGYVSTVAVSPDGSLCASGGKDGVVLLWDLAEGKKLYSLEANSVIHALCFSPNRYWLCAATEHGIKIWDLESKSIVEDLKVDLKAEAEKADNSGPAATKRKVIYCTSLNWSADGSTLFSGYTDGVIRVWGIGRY

What does the source list for `Nn1c(S)nnc1-c1cc(Cl)cc(Cl)c1` [SD 29-14]?
N-cadherin expression [1]: down-regulated N-cadherin expression; co-localization of RACK1 and Lamb1 at the cell surface [2]: this interaction was absent; RACK1A Y248 phosphorylation with stress hormone present [3]: prevents Y248 phosphorylation
